Broadly, the inhibition in vivo is the change of the read-out against control, counted positive when it falls. Read a low inhibition in vivo as a weak effect.

14 compounds from patent US4730060A, “Carbacyclin derivatives, method of manufacturing the same and therapeutic agents containing these compounds” (Kotobuki Seiyaku Co. Ltd., priority 1986, dated 1988) can be followed below.

The first series deals with ethanol-induced ulcer. The experiment in a line: Anti-ulcer activities, ethanol-induced ulcer. The format is in vivo. Conditions: po, 1 h; rat, perorally, dose 10 μg/kg, 30 min before ethanol. Here is the method:
1. Anti-ulcer activities, Ethanol-induced ulcer
Inhibitory effects of ethanol-induced ulcer are determined by the method of A. Robert (Gastroenterology 77, 433-43). Rats are fasted for 24 hrs. and are given 1 ml of absolute ethanol perorally. 1 hour after administration of ethanol, the stomach of the rat is removed. The length of each ulcer occurring in the grandulor stomach is determined and each ulcer in one rat is acounted as ulcer-index. The test compounds are given perorally 30 minutes before ethanol administration.
Take `CC1([C@H](O)/C=C/[C@@H]2[C@H]3CC(CCOCC(=O)O)=C[C@H]3C[C@H]2O)Cc2ccccc2C1` [Compound 41, 15α-Hydroxy-15-(2-methylindan-2-yl)-3-oxa-isocarbacyclin]: 0.01 mg/kg produced 64.2% inhibition in vivo.
The same measure, in the same setting: with `O=C(O)CCCC=C1C[C@H]2C[C@@H](O)[C@H](/C=C/[C@@H](O)C3COc4ccccc4O3)[C@H]2C1` (stereo partly drawn) [Compound 5, 15α-Hydroxy-15-(benzodioxane-2-yl)-carbacyclin] the figure was 71.9%; with `O=C(O)COCCC1=C[C@H]2C[C@@H](O)[C@H](/C=C/[C@@H](O)C3COc4ccccc4O3)[C@H]2C1` (stereo partly drawn) [Compound 45, 15α-Hydroxy-15-(1,4-benzodioxane-2-yl)-3-oxa-isocarbacyclin], 58.9%.

Staying with this series, now noted: po, 1 h; rat, perorally, dose 30 μg/kg, 30 min before ethanol.
In turn, `O=C(O)COCC=C1C[C@H]2C[C@@H](O)[C@H](/C=C/[C@@H](O)C3Cc4ccccc4C3)[C@H]2C1` [Compound 35, 15α-Hydroxy-15-(indan-2-yl)-3-oxa-carbacyclin] came in with an inhibition in vivo at 0.03 mg/kg of 44.6%.
The same measure, in the same setting: with `O=C(O)CCCC=C1C[C@H]2C[C@@H](O)[C@H](C#C[C@@H](O)C3Cc4ccccc4C3)[C@H]2C1` [Compound 3, 13,14-Dehydro-15α-hydroxy-15-(indan-2-yl)-carbacyclin] the figure was 93.4%; with `COc1ccc2c(c1)OCC([C@H](O)/C=C/[C@@H]1[C@H]3CC(=CCCCC(=O)O)C[C@H]3C[C@H]1O)O2` (stereo partly drawn) [Compound 11, 15α-Hydroxy-15-(6-methoxybenzodioxane-2-yl)-carbacyclin], 82.1%.
The same measure, in the same setting: with `CC1([C@H](O)/C=C/[C@@H]2[C@H]3CC(=CCOCC(=O)O)C[C@H]3C[C@H]2O)Cc2ccccc2C1` [Compound 33, 15α-Hydroxy-15-(2-methylindan-2-yl)-3-oxa-carbacyclin] the figure was 47.6%.

The same series, now with this note: po, 1 h; rat, perorally, dose 100 μg/kg, 30 min before ethanol.
In turn, `O=C(O)CCCC=C1C[C@H]2C[C@@H](O)[C@H](/C=C/[C@@H](O)C3Cc4ccccc4C3)[C@H]2C1` [Compound 7, 15α-Hydroxy-15-(indan-2-yl)-carbacyclin] showed an inhibition in vivo at 0.1 mg/kg of 68.7%.
The same measure, in the same setting: with `CC1([C@H](O)/C=C/[C@@H]2[C@H]3CC(=CCCCC(=O)O)C[C@H]3C[C@H]2O)COc2ccccc2O1` (stereo partly drawn) [Compound 17, 15β-Hydroxy-15-(2-methylbenzodioxane-2-yl)-carbacyclin] the figure was 72.6%; with `O=C(O)COCC=C1C[C@H]2C[C@@H](O)[C@H](/C=C/[C@@H](O)C3COc4ccccc4O3)[C@H]2C1` (stereo partly drawn) [Compound 37, 15α-Hydroxy-15-(1,4-benzodioxane-2-yl)-3-oxa-carbacyclin], 51.6%; with `O=C(O)CCCC=C1C[C@H]2C[C@@H](O)[C@H](/C=C/[C@@H](O)c3ccc4c(c3)OCCO4)[C@H]2C1` [Compound 1, 15α-Hydroxy-15-(benzodioxane-6-yl)-carbacyclin], 41.6%.
For the compound `O=C(O)COCCC1=C[C@H]2C[C@@H](O)[C@H](/C=C/[C@@H](O)C3Cc4ccccc4C3)[C@H]2C1` [Compound 43, 15α-Hydroxy-15-(indan-2-yl)-3-oxa-isocarbacyclin], the inhibition in vivo at 0.1 mg/kg is 51.8%.

Staying with this series, now noted: po, 1 h; rat, perorally, dose 300 μg/kg, 30 min before ethanol.
On to `O=C(O)CCCC=C1C[C@H]2C[C@@H](O)[C@H](/C=C/[C@@H](O)C3Cc4ccc([N+](=O)[O-])cc4C3)[C@H]2C1` (stereo partly drawn) [Compound 23, 15α-Hydroxy-15-(5-nitroindan-2-yl)-carbacyclin], for which testing at 0.3 mg/kg gave an inhibition in vivo of 98.9%.
Still for that read-out and setting: with `Cc1ccc2c(c1)OCC([C@H](O)/C=C/[C@@H]1[C@H]3CC(=CCCCC(=O)O)C[C@H]3C[C@H]1O)O2` (stereo partly drawn) [Compound 9, 15α-Hydroxy-15-(6-methylbenzodioxane-2-yl)-carbacyclin] the figure was 80.6%.

Test system in the next series: not listed separately
The experiment in a line: Stability test in buffer solutions, by thin layer chromatography. The note with it: pH 7.4, room temperature, 2 months. The format is physicochemical. As to the method: About 1.5 mg of test compound was dissolved in a drop of methanol and diluted in each 1.5 ml of a buffer solution *adjusted to pH 5.2, 7.2, 7.4, 9.2, respectively. Stability test was carried out at 37° C. in the case of pH 5.2, 7.2, 9.2 and at room temperature in the case of pH 7.4,.
Using a thin layer chromatography as the identification method, the test solution in each buffer solution of pH 5.2, 7.2, 7.4 was extracted with ethyl acetate and in the case of the test solution of […], it was diluted with water, acidified at pH 4 with 10% HCl and extracted with ethyl acetate.
*pH 5.2 (0.2M Pottasium hydrogen phthalate)
Consider `O=C(O)CCCC=C1C[C@H]2C[C@@H](O)[C@H](/C=C/[C@@H](O)C3COc4ccccc4O3)[C@H]2C1` (stereo partly drawn) [Compound 5, 15α-Hydroxy-15-(benzodioxane-2-yl)-carbacyclin], for which the “Stability (change in thin layer chromatography)” value is “No change”.
